Laboratory results as given in article PMC4585835 (Scientific Reports, 2015).
Like-named read-outs stand apart in the source and are kept apart here. Where a SMILES comes first, the peptide text is derived from it. [ ]: non-standard residue; d: D form. The star is where a group is joined. Stearoyl = CCCCCCCCCCCCCCCCCC(=O)*

What was measured:
Format in all cases: in vivo
[1] = Pharmacokinetics in rats, i.v.; details: rat
Description: SD Rats were randomly divided into three groups (n = 5). […] All blood samples were immediately centrifuged at 5000 rpm for 5 min at room temperature, and the plasma obtained was stored at −20 °C before analysis. To the rat plasma (100 μL) was added 10 μL internal standard (80 ~ 100 ng/ml Carbamazepine), followed by mixing with 200 μL methanol with vortexing for 1 min. At this stage, certain amounts of proteins may precipitate out, thus this mixture was centrifuged at 12,000 rpm for 5 min at room temperature to achieve complete separation. The 20 μl supernatant was injected into a HPLC (Symbiosis, Spark, Holland; column: 50 mm × 2.1 mm, 5 μm, Agilent Eclipse Plus) –MS/MS system (ABI 4000 Q-Trap triple quadrupole mass spectrometer) equipped with electrospray ionization (ESI) source in the positive ion mode (Foster City, USA). The HPLC elution gradient was as follows: 0–0.5 min, 5–5% (B); 0.5–3 min, 5–95% (B); 3–4 min, 95–95% (B); 4–4.06 min, 95–5% (B); 4.06–6 min, 5–5% (B); the flow-rate was 0.4 ml/min; A was 0.1% formic acid/Waterl, B was 0.1% formic acid/methanol. The MS parameters were: CUR10Psi; Ion Spray Voltage (IS) 5500v; Collision activated dissociation (CAD) High, Gas1 = 50 psi, Gas2 = 50 psi, TEM = 500 °C.
All three peptides remained stable in plasma during three freeze/thaw cycles, at room temperature for at least 2 h. The supernatant of plasma samples were also found to be stable for at least 24 h at 10 °C in the autosampler.
The statistical significance of the difference among pharmacokinetic parameters was determined using the mean comparison Student’s t-test, and the resulting P values were lower than 0.05, which is considered to be statistically significant.

rat blood = assay: Coagulation time (CT) of rat blood
Description: CT was obtained using the modified Dale’s method. […] Thirty min after administration, blood samples were taken from the rat vein under eye ball with glass capillaries (20 μL), which were broken after 10 s, followed by a coagulation check. The time between blood extraction and blood coagulation in each capillary was recorded as coagulation time (CT).

rat plasma = assay: Time course of APTT in rat plasma after peptide administration
Description: Peptides were administrated to male SD rats (280–320 g) via tail veins. At different time points (0, 20, 40, 60, 90, 120, 180, and 240 min; or 0, 1, 2, 3, 4, 5, 8, and 12 h) after peptide injection, blood samples were collected via retroorbital vein plexus, and then mixed with 3.2% sodium citrate solution in a ratio of 9:1 (v/v). The resulting mixtures were centrifuged at 2,000 g for 15 min at 4 °C. The APTT of rat plasma was determined on a coagulation analyzer (Coatron M1, TECO, Germany) following the manual protocol. Briefly, a cuvette with 0.05 mL rat plasma was first warmed to 37 °C for 2 min, and then 0.05 mL of the warmed APTT reagent was added, followed by incubating at 37 °C for 3 min. Afterwards, 50 μL calcium chloride solution (0.25 M) was added into the cuvette, and the clotting time of plasma samples was recorded immediately with the coagulation analyser (APTT).

[2] = SD, plasma, iv, 1 umol/kg, 1 μmol/kg i.v., n = 5

CCCCCCCCCCCCCCCCCC(=O)NCCCC[C@H](NC(=O)CNC(=O)[C@@H]1CCCN1C(=O)[C@H](CCCNC(=N)N)NC(=O)[C@@H]1CCCN1C(=O)[C@H](N)Cc1ccccc1)C(=O)NCC(=O)NCC(=O)N[C@@H](CCC(N)=O)C(=O)NCC(=O)N[C@@H](CC(=O)O)C(=O)N[C@@H](Cc1ccccc1)C(=O)N[C@@H](CCC(=O)O)C(=O)N1CCC[C@H]1C(=O)N[C@H](C(=O)N1CCC[C@H]1C(=O)N[C@@H](CCC(=O)O)C(=O)N[C@@H](CC(=O)O)C(=O)N[C@@H](C)C(=O)N[C@@H](Cc1ccc(O)cc1)C(=O)N[C@@H](CC(=O)O)C(=O)N[C@@H](CCC(=O)O)C(N)=O)[C@@H](C)CC [Peptide S2] (H-[dF]PRPGK(Stearoyl)GGQGDFEPIPEDAYDE-NH2; N-terminus assumed)
AUC(0-inf) [1, 2]: 26.5 µM·h
Cmax [1, 2]: 10.1 ± 1.1 µM
clearance [1, 2]: 0.7 ± 0.1 mL/min/kg
AUC(0-t) ([1]; SD, plasma, iv, 1 umol/kg, 1 μmol/kg i.v., n = 5, read-out: AUC(0-t) (converted)): 22.9 µM·h
Vd ([1]; SD, plasma, iv, 1 umol/kg, 1 μmol/kg i.v., n = 5, read-out: Vss): 0.146 ± 0.0155 L/kg
half-life [1, 2]: 3.54 ± 0.973 h
MRT last ([1]; in vivo, iv, 1 umol/kg, 1 μmol/kg i.v., n = 5, read-out: MRT0-t (converted)): 3.29 h
half-life, fold longer than hirulog-1 [1]: 13.1 fold
half-life, fold longer than peptide 1 [1]: 14.7 fold
AUC(0-t) ([1]; 1 μmol/kg i.v., n = 5): 22.862 ± 3.463 µM·h
AUC(0-∞) ([1]; 1 μmol/kg i.v., n = 5): 1590.6 ± 311.7 nmol·min/mL
anticoagulant activity (CT) compared with references (rat blood; 1.0 mg/kg peptide S2): superior to the 8 mg/kg hirulog-1 and 200 IU/kg heparin
coagulation time (CT) of rat blood (rat blood; 30 min after administration): significantly prolong
APTT of rat plasma, time course (rat plasma; after injection via tail vein, Fig. 1D): increased in the first 4 h, and then decreased
duration of antithrombotic activity (APTT) (rat plasma; rat plasma after peptide administration): more than 8 h
